Measured values reported in patent US20100041710A1, “PENETRATION ENHANCER FOR INSECTICIDES” (priority 2006, published 2010).
Read-outs that look alike come from different tables or passages of the source.

What was measured:
[1] = Method: In this test, the penetration of active substances through enzymatically isolated cuticles of apple tree leaves was measured. The cuticles represent all green plant parts, such as leaf blade, petiole, stalk, trunk, hypocotyl and many fruits.
Leaves which were cut off in the stage of full development of apple trees of the Golden Delicious variety were used. The isolation of the cuticles was effected in a manner such that • first, leaf disks marked on the underside with dye and punched out were filled by means of vacuum infiltration with a pectinase solution (0.2 to 2% strength by weight) buffered to a pH between 3 and 4, • sodium azide was then added and • the leaf disks thus treated were allowed to stand until disintegration of the original leaf structure and detachment of the noncellular cuticle.
Thereafter, only those cuticles of the upper sides of the leaves which were free of stomata and hairs were further used. They were washed several times alternately with water and a buffer solution at pH 7. The cleaned cuticles obtained were finally drawn onto small Teflon plates and smoothed and dried with a gentle air jet.
In the next step, the cuticle membranes thus obtained were placed in stainless steel diffusion cells (=transport chambers) for membrane transport investigations. For this purpose, the cuticles were placed by means of forceps centrally on the silicone grease-coated edges of the diffusion cells and closed with a likewise greased ring. The arrangement was chosen so that the morphological outside of the cuticles faced outward, i.e. toward the air, while the original inside faced the interior of the diffusion cell. The diffusion cells were filled with water or with a mixture of water and solvent.
For determining the penetration, in each case 10 μl of a spray liquor of the composition mentioned in the examples were applied to the outside of a cuticle.
In each case the solvents listed below in the table (tap water or a mixture with 20% by weight of acetone/80% by weight of tap water) were used in the spray liquors.
After the application of the spray liquors, in each case the solvent was allowed to evaporate, and in each case the chambers were then turned around and placed in thermostated trays, air having a defined temperature and atmospheric humidity being blown onto the outside of the cuticle. The incipient penetration therefore took place at a relative humidity of 60% and a set temperature of 20 or 25° C. The active substance penetration was measured with radioactively marked active substance.

crop plant = assay: Crop plant tolerance tests; settings: compared with other alkyl ester additives
[2] = Table 3, 0.1 g/l of imidacloprid in tap water, apple leaf cuticles, 20-25° C., rel. humidity 56-60%, mean of 10 repetitions
[3] = Table 2, 0.3 g/l of active substance, tap water (thiacloprid) or acetone/tap water 20/80% by weight (spirotetramat), 20-25° C., rel. humidity 56-60%, mean of 4-8 repetitions
[4] = Table 1, 0.18 g/l of thiacloprid in tap water, apple leaf cuticles, 20° C., rel. humidity 60%, mean of 4-8 repetitions

## O=[N+]([O-])NC1=NCCN1Cc1ccc(Cl)nc1 [imidacloprid]
[1]; [2]
  % Penetration after 3 h: 0.3%
  % Penetration after 24 h: 0.5%

## CCCCOCCOP(=O)(OCCOCCCC)OCCOCCCC [TBEP, tributoxyethyl phosphate]
[1]; summary of table 3 (imidacloprid), versus TBP and TPP
  Increase in uptake of active substances compared with prior-art penetration enhancers: advantageously higher increase in uptake of active substances than the penetration enhancers of the prior art
Crop plant
  Crop plant tolerance: more tolerant than other alkyl ester additives

## CCOC(=O)OC1=C(c2cc(C)ccc2C)C(=O)N[C@]12CC[C@@H](OC)CC2 [spirotetramat, cis-3-(2,5-dimethylphenyl)-8-methoxy-2-oxo-1-azaspiro[4.5]dec-3-en-4-yl ethyl carbonate]
[1]; [3]
  % Penetration after 3 h: 0%
  % Penetration after 48 h: 0.3%

## N#C/N=C1\SCCN1Cc1ccc(Cl)nc1 [thiacloprid]
[1]; [4]
  % Penetration after 3 h: 0.1%
  % Penetration after 24 h: 0.8%
[1]; [3]
  % Penetration after 3 h: 0.1%
  % Penetration after 48 h: 1.0%
